Data on 3 molecules can be found in ChEMBL document CHEMBL4364294 (J Med Chem, 2019).

A short description of data set [1]: Intrinsic clearance in human liver microsomes. In kind it is ADME, Microsome. To be noted: read-out: CLH.
A short description of data set [2]: Aqueous solubility of the compound at pH 1. In kind it is physicochemical.
Data set [3] in a line: Aqueous solubility of the compound at pH 6.5. The class given is physicochemical.
Data set [4] is described as follows: Aqueous solubility of the compound at pH 7.4. In kind it is physicochemical.

Converted amounts (≈) assume the structure as drawn.

As for `O[C@H](C[C@H]1c2c(F)cccc2-c2cncn21)[C@H]1CC[C@@H](O)CC1`, in data set [1], the predicted hepatic clearance is 1.11 L/h/kg.

Regarding `O=C(N[C@H]1CC[C@@H](C(O)CC2c3ccccc3-c3cncn32)CC1)c1ccccc1` (stereo partly specified), in data set [1], the predicted hepatic clearance was 0.494 L/h/kg. Also, the solubility (usually the dissolved amount per volume that the medium holds) in data set [2] was 400 µM (≈ 161 µg/mL); in data set [3], 65 µM (≈ 26.1 µg/mL); in data set [4], 56 µM (≈ 22.5 µg/mL).

With `OC(CC1c2ccccc2-c2cncn21)C1CCC(F)(F)CC1` (stereo unspecified), the predicted hepatic clearance in data set [1] is 0.876 L/h/kg.
